Laboratory results published in patent EP2253617A1, “Halogenated compounds as pesticides” (Bayer CropScience AG, priority 2009, dated 2010).

Legend:
Phaedon cochleariae = experiment: Phaedon test (PHAECO spray treatment); format: in vivo; details: 500 g/ha, sprayed Chinese cabbage leaf discs, larvae, after 7 days; 100 % = all beetle larvae killed
Description: Phaedon-Test (PHAECO Spritzbehandlung)
(§1) • Lösungsmittel: 78,0 GewichtsteileAceton 1,5 Gewichtsteile Dimethylformamid • Emulgator: 0,5 Gewichtsteile Alkylarylpolyglykolether
(§2) Zur Herstellung einer zweckmäßigen Wirkstoffzubereitung vermischt man 1 Gewichtsteil Wirkstoff mit den angegebenen Mengen Lösungsmittel und Emulgator und verdünnt das Konzentrat mit emulgatorhaltigem Wasser auf die gewünschte Konzentration.
Chinakohlblattscheiben (Brassica pekinensis) werden mit einer Wirkstoffzubereitung der gewünschten Konzentration gespritzt und nach dem Abtrocknen mit Larven des Meerrettichblattkäfers (Phaedon cochleariae) besetzt.
Nach 7 Tagen wird die Wirkung in % bestimmt. Dabei bedeutet 100 %, dass alle Käferlarven abgetötet wurden; 0 % bedeutet, dass keine Käferlarven abgetötet wurden.

Lucilia cuprina Larven = experiment: Lucilia cuprina test (LUCICU); format: in vivo; details: 100 ppm, treated horse meat, larvae, after 2 days; 100 % = all larvae killed
Method: Lucilia cuprina-Test (LUCICU)
(§3) Lösungsmittel: Dimethylsulfoxid
Zur Herstellung einer zweckmäßigen Wirkstoffzubereitung vermischt man 10 mg Wirkstoff mit 0,5 ml Dimethylsulfoxid und verdünnt das Konzentrat mit Wasser auf die gewünschte Konzentration.Gefäße, die Pferdefleisch enthalten, das mit der Wirkstoffzubereitung der gewünschten Konzentration behandelt wurde, werden mit Lucilia cuprina Larven besetzt.
Nach 2 Tagen wird die Abtötung in % bestimmt. Dabei bedeutet 100 %, dass alle Larven abgetötet wurden; 0 % bedeutet, dass keine Larven abgetötet wurden.

Spodoptera frugiperda = Spodoptera frugiperda test (SPODFR spray treatment); format: in vivo; details: 500 g/ha, sprayed maize leaf discs, caterpillars, after 7 days; 100 % = all caterpillars killed
Description: Spodoptera frugiperda-Test (SPODFR Spritzbehandlung)
as §1, §2
Maisblattscheiben (Zea mays) werden mit einer Wirkstoffzubereitung der gewünschten Konzentration gespritzt und nach dem Abtrocknen mit Raupen des Heerwurms (Spodoptera frugiperda) besetzt.Nach 7 Tagen wird die Wirkung in % bestimmt. Dabei bedeutet 100 %, dass alle Raupen abgetötet wurden; 0 % bedeutet, dass keine Raupe abgetötet wurde.

Musca domestica Adulten = experiment: Musca domestica test (MUSCDO); format: in vivo; details: 100 ppm, treated sponge, adults, after 2 days; 100 % = all flies killed
Method: Musca domestica-Test (MUSCDO)
as §3
Zur Herstellung einer zweckmäßigen Wirkstoffzubereitung vermischt man 10 mg Wirkstoff mit 0,5 ml Dimethylsulfoxid und verdünnt das Konzentrat mit Wasser auf die gewünschte Konzentration. Gefäße, die einen Schwamm enthalten, der mit der Wirkstoffzubereitung der gewünschten Konzentration behandelt wurde, werden mit Musca domestica Adulten besetzt.
Nach 2 Tagen wird die Abtötung in % bestimmt. Dabei bedeutet 100 %, dass alle Fliegen abgetötet wurden; 0 % bedeutet, dass keine Fliegen abgetötet wurden.

Tetranychus urticae = format: in vivo; details: foliar, 500 g/ha, 144 h
Description: Tetranychus-Test, OP-resistent (TETRUR Spritzbehandlung)
as §1, §2
Bohnenblattscheiben (Phaseolus vulgaris), die von allen Stadien der Gemeinen Spinnmilbe (Tetranychus urticae) befallen sind, werden mit einer Wirkstoffzubereitung der gewünschten Konzentration gespritzt.
Nach 6 Tagen wird die Wirkung in % bestimmt. Dabei bedeutet 100 %, dass alle Spinnmilben abgetötet wurden; 0 % bedeutet, dass keine Spinnmilben abgetötet wurden.

Boophilus microplus = Boophilus microplus test (BOOPMI injection); format: in vivo; details: 20 µg / Tier, injection into the abdomen, after 7 days; 100 % = no tick laid fertile eggs
Method: Boophilus microplus -Test (BOOPMI Injektion)
as §3
Zur Herstellung einer zweckmäßigen Wirkstoffzubereitung vermischt man 10 mg Wirkstoff mit 0,5 ml Lösungsmittel und verdünnt das Konzentrat mit Wasser auf die gewünschte Konzentration. Die Wirkstofflösung wird in das Abdomen (Boophilus microplus) injiziert, die Tiere werden in Schalen überführt und in einem klimatisierten Raum aufbewahrt. Die Wirkungskontrolle erfolgt auf Ablage fertiler Eier. Nach 7 Tagen wird die Wirkung in % bestimmt. Dabei bedeutet 100%, dass keine Zecke fertile Eier gelegt hat.

Ctenocephalides felis = Ctenocephalides felis oral test (CTECFE); format: in vivo; details: 100 ppm in citrated cattle blood, oral uptake, adult fleas, after 2 days; 100 % = all fleas killed
Method: Ctenocephalides felis oral (CTECFE)
Lösungsmittel: 1 Gewichtsteil Dimethylsulfoxid
Zwecks Herstellung einer zweckmäßigen Wirkstoffzubereitung vermischt man 10 mg Wirkstoff mit 0,5 ml Dimethylsulfoxid. Ein Teil des Konzentrats wird mit citriertem Rinderblut verdünnt und die gewünschte Konzentration hergestellt.
20 nüchterne adulte Flöhe (Ctenocephalides felis) werden in eine Kammer eingesetzt, die oben und unten mit Gaze verschlossen ist. Auf die Kammer wird ein Metallzylinder gestellt, dessen Unterseite mit Parafilm verschlossen ist. Der Zylinder enthält die Blut-Wirkstoffzubereitung, die von den Flöhen durch die Parafilmmembran aufgenommen werden kann. Nach 2 Tagen wird die Abtötung in % bestimmt. Dabei bedeutet 100 %, dass alle Flöhe abgetötet wurden; 0 % bedeutet, dass kein Floh abgetötet wurde.

Row | Compound | Wirkung (Phaedon cochleariae) | Wirkung (Abtötung in %) (Lucilia cuprina Larven) | Wirkung (Spodoptera frugiperda) | Wirkung (Abtötung in %) (Musca domestica Adulten) | Wirkung (Tetranychus urticae) | chromatographic logP (physchem) | Wirkung (Boophilus microplus) | Wirkung (Abtötung in %) (Ctenocephalides felis)
1 | Cn1nc(C(F)(F)C(F)(F)F)c(C(F)(F)F)c1C(=O)Nc1ccc(Cl)c(C(=O)Nc2ccc(F)cc2F)c1 [Ia-22] | 100% | 100% | 100% | 90% | 100% | 4.05 | 100% | 100%
2 | Cn1nc(C(F)(F)C(F)(F)F)c(C(F)(F)F)c1C(=O)Nc1ccc(Cl)c(C(=O)Nc2cc(Cl)ccn2)c1 [Ia-26] | 100% | 100% | 100% | 80% | 90% | 4.17 | 100% | 80%
